Test system: NMNAT2
Assay: NMNAT2-Hibit nano-luciferase activity in transfected U87MG cells, 25 μM, 24 hours
Format: cell-based
Details: NMNAT2-Hibit luc plasmid; for C: Compound efficacy for NMNAT2 activation; increase in NMNAT2 luciferase activity: 24 hours (Table C); for B: compound efficacy (IC50) for NMNAT2 activation; increase in NMNAT2 luciferase activity: 24 hours (Table B)
Procedure: Selected compounds were tested in vitro. Briefly, U87MG cells were transfected with NMNAT2-Hibit luc plasmid. Cells were treated with a test compound at 25 μM for 24 hours. Cells were then collected and assayed for nano-luciferase activity.

Row | Compound | C: Compound efficacy for NMNAT2 activation; increase in NMNAT2 luciferase activity | B: compound efficacy (IC50) for NMNAT2 activation; increase in NMNAT2 luciferase activity
1 | O=C(Cn1cc(C(=O)C(F)(F)F)c2ccccc21)NCc1ccco1 [Compound 181101] | + (“+” <20% increase in NMNAT2 luciferase activity.) | –
2 | Cc1ccc(CCNC(=O)NCc2noc3ccccc23)cc1 [Compound 181030] | – | + (“+” <20% increase in NMNAT2 luciferase activity.)
3 | CCc1ccccc1NC(=O)NCc1noc2ccccc12 [Compound 181024] | – | + (“+” <20% increase in NMNAT2 luciferase activity.)
4 | O=C(NCc1noc2ccccc12)Nc1cccc(C(F)(F)F)c1 [Compound 181002] | – | + (“+” <20% increase in NMNAT2 luciferase activity.)
5 | COc1ccc(OC)c(CNC(=O)NCc2noc3ccc(C)cc23)c1 [Compound 181072] | – | + (“+” <20% increase in NMNAT2 luciferase activity.)
6 | COc1ccc(CNC(=O)Cn2c(C)cc(C)c(C#N)c2=O)cc1OC [Compound 181127] | + (“+” <20% increase in NMNAT2 luciferase activity.) | –
7 | Cc1ccc2c(c1)n(CC(=O)NCc1ccco1)c(=O)c1cccn12 [Compound 181113] | + (“+” <20% increase in NMNAT2 luciferase activity.) | –
8 | CC(NC(=O)NCc1noc2ccccc12)c1ccccc1 (stereo not drawn) [Compound 181034] | – | + (“+” <20% increase in NMNAT2 luciferase activity.)
9 | CCC(=O)c1cn(CC(=O)NCc2ccco2)c2ccccc12 [Compound 181108] | + (“+” <20% increase in NMNAT2 luciferase activity.) | –
10 | Cc1ccccc1N(C)C(=O)NCc1noc2ccccc12 [Compound 181012] | – | + (“+” <20% increase in NMNAT2 luciferase activity.)
11 | Cc1ccc2onc(CNC(=O)NC3CCCCCC3)c2c1 [Compound 181049] | – | + (“+” <20% increase in NMNAT2 luciferase activity.)
12 | CCN(C(=O)NCc1noc2ccc(C)cc12)c1cccc(Cl)c1 [Compound 181054] | – | + (“+” <20% increase in NMNAT2 luciferase activity.)
13 | Cc1ccc2onc(CNC(=O)Nc3ccccc3F)c2c1 [Compound 181043] | – | + (“+” <20% increase in NMNAT2 luciferase activity.)
14 | Cc1ccc2onc(CNC(=O)N(C)c3ccccc3Cl)c2c1 [Compound 181057] | – | + (“+” <20% increase in NMNAT2 luciferase activity.)
15 | Cc1ccc2onc(CNC(=O)N3CCN(c4cccc(Cl)c4)CC3)c2c1 [Compound 181045] | – | + (“+” <20% increase in NMNAT2 luciferase activity.)
16 | Cc1cccc(N(C)C(=O)NCc2noc3ccccc23)c1 [Compound 181018] | – | + (“+” <20% increase in NMNAT2 luciferase activity.)
17 | Cc1ccc2onc(CNC(=O)NC3CC3)c2c1 [Compound 181063] | – | + (“+” <20% increase in NMNAT2 luciferase activity.)
18 | CN(C(=O)NCc1noc2ccccc12)c1ccc(Br)cc1 [Compound 181015] | – | + (“+” <20% increase in NMNAT2 luciferase activity.)
19 | Cc1cc(C)n(CC(=O)Nc2ccccc2C(=O)NCc2ccco2)c(=O)c1C#N [Compound 181135] | + (“+” <20% increase in NMNAT2 luciferase activity.) | –
20 | Cc1ccc(CNC(=O)NCc2noc3ccccc23)cc1 [Compound 181022] | – | + (“+” <20% increase in NMNAT2 luciferase activity.)
21 | Cc1cc(C)n(CC(=O)NCc2ccccc2Cl)c(=O)c1C#N [Compound 181130] | + (“+” <20% increase in NMNAT2 luciferase activity.) | –
22 | CN(C(=O)NCc1noc2ccccc12)c1ccc(F)cc1 [Compound 181032] | – | + (“+” <20% increase in NMNAT2 luciferase activity.)
23 | COc1ccc(NC(=O)NCc2noc3ccccc23)cc1 [Compound 181026] | – | + (“+” <20% increase in NMNAT2 luciferase activity.)
24 | COc1ccc(CNC(=O)NCc2noc3ccccc23)cc1 [Compound 181019] | – | + (“+” <20% increase in NMNAT2 luciferase activity.)
25 | Cc1ccc(CNC(=O)NCc2noc3ccc(C)cc23)cc1 [Compound 181069] | – | ++ (“++” >20% and <100% increase in NMNAT2 luciferase activity.)
26 | Cc1cc(C)n(CC(=O)NCc2ccc(Cl)cc2)c(=O)c1C#N [Compound 181122] | + (“+” <20% increase in NMNAT2 luciferase activity.) | –
27 | Cc1ccc2onc(CNC(=O)NC(C)c3ccccc3)c2c1 (stereo not drawn) [Compound 181090] | – | + (“+” <20% increase in NMNAT2 luciferase activity.)

Row | Compound | C: Compound efficacy for NMNAT2 activation; increase in NMNAT2 luciferase activity | B: compound efficacy (IC50) for NMNAT2 activation; increase in NMNAT2 luciferase activity
28 | Cc1cc2ncn(CC(=O)NCc3ccco3)c2cc1C [Compound 181159] | + (“+” <20% increase in NMNAT2 luciferase activity.) | –
29 | COCCCNC(=O)NCc1noc2ccc(C)cc12 [Compound 181048] | – | ++ (“++” >20% and <100% increase in NMNAT2 luciferase activity.)
30 | COc1ccccc1CNC(=O)NCc1noc2ccc(C)cc12 [Compound 181044] | – | + (“+” <20% increase in NMNAT2 luciferase activity.)
31 | O=C(Cn1cc(C(=O)c2ccccc2)c2ccccc21)NCc1ccco1 [Compound 181106] | +++ (“+++” >100% increase in NMNAT2 luciferase activity.) | –
32 | COc1ccc(NC(=O)NCc2noc3ccccc23)cc1Cl [Compound 181006] | – | + (“+” <20% increase in NMNAT2 luciferase activity.)
33 | Cc1cc2ccccc2n1CC(=O)NCc1ccco1 [Compound 181144] | + (“+” <20% increase in NMNAT2 luciferase activity.) | –
34 | CCc1ccccc1NC(=O)NCc1noc2ccc(C)cc12 [Compound 181075] | – | + (“+” <20% increase in NMNAT2 luciferase activity.)
35 | Cc1ccc2onc(CNC(=O)Nc3cccc(C#N)c3)c2c1 [Compound 181066] | – | + (“+” <20% increase in NMNAT2 luciferase activity.)
36 | O=C(NCc1noc2ccccc12)Nc1ccccc1Cl [Compound 181027] | – | + (“+” <20% increase in NMNAT2 luciferase activity.)
37 | Cc1ccc(NC(=O)NCc2noc3ccc(C)cc23)c(Cl)c1 [Compound 181062] | – | + (“+” <20% increase in NMNAT2 luciferase activity.)
38 | Cc1ccc2onc(CNC(=O)NCCc3ccc(Cl)cc3)c2c1 [Compound 181059] | – | + (“+” <20% increase in NMNAT2 luciferase activity.)
39 | O=C(NCc1cccc(Cl)c1)NCc1noc2ccccc12 [Compound 181025] | – | + (“+” <20% increase in NMNAT2 luciferase activity.)
40 | CSc1ccc(CNC(=O)Cn2c(C)cc(C)c(C#N)c2=O)cc1 [Compound 181132] | + (“+” <20% increase in NMNAT2 luciferase activity.) | –
41 | O=C(CCc1cn(Cc2ccccc2F)c2ccccc12)NCc1ccco1 [Compound 181117] | + (“+” <20% increase in NMNAT2 luciferase activity.) | –
42 | O=C(Cn1ccc2ccccc21)NCc1ccc(F)cc1 [Compound 181148] | ++ (“++” >20% and <100% increase in NMNAT2 luciferase activity.) | –
43 | Cc1ccc2onc(CNC(=O)NCCc3c[nH]c4ccccc34)c2c1 [Compound 181086] | – | ++ (“++” >20% and <100% increase in NMNAT2 luciferase activity.)
44 | Cc1ccc(NC(=O)NCc2noc3ccc(C)cc23)c(Br)c1 [Compound 181038] | – | + (“+” <20% increase in NMNAT2 luciferase activity.)
45 | Cc1cc2ccccc2c(=O)n1CC(=O)NCc1ccco1 [Compound 181112] | + (“+” <20% increase in NMNAT2 luciferase activity.) | –
46 | O=C(Cn1cc(C(=O)C2CC2)c2ccccc21)NCc1ccco1 [Compound 181105] | + (“+” <20% increase in NMNAT2 luciferase activity.) | –
47 | COc1ccc(NC(=O)NCc2noc3ccc(C)cc23)cc1Cl [Compound 181041] | – | + (“+” <20% increase in NMNAT2 luciferase activity.)
48 | Cc1ccc(NC(=O)NCc2noc3ccccc23)cc1F [Compound 181004] | – | + (“+” <20% increase in NMNAT2 luciferase activity.)
49 | Cc1ccc(Cl)cc1N(C)C(=O)NCc1noc2ccccc12 [Compound 181011] | – | + (“+” <20% increase in NMNAT2 luciferase activity.)
50 | Cc1cccc(N(C)C(=O)NCc2noc3ccc(C)cc23)c1 [Compound 181058] | – | + (“+” <20% increase in NMNAT2 luciferase activity.)
51 | CN(C(=O)NCc1noc2ccccc12)c1cccc(Cl)c1 [Compound 181013] | – | + (“+” <20% increase in NMNAT2 luciferase activity.)
52 | Cc1cccc(CCNC(=O)NCc2noc3ccccc23)c1 [Compound 181023] | – | + (“+” <20% increase in NMNAT2 luciferase activity.)
53 | CC(CCc1ccco1)NC(=O)Cn1ccc2ccc(Br)cc21 (stereo not drawn) [Compound 181154] | ++ (“++” >20% and <100% increase in NMNAT2 luciferase activity.) | –
54 | COc1ccccc1CNC(=O)Cn1c(C)cc(C)c(C#N)c1=O [Compound 181126] | + (“+” <20% increase in NMNAT2 luciferase activity.) | –

Source: patent publication US20220169632A1, “METHODS AND MATERIALS FOR INCREASING OR MAINTAINING NICOTINAMIDE MONONUCLEOTIDE ADENYLYL TRANSFERASE-2 (NMNAT2) POLYPEPTIDE LEVELS” (University of Pittsburgh - Of the Commonwealth System of …, priority 2019, published 2022)
